Source: patent US20240041764A1, “Sustained-Release Oral Fosamprenavir Formulation for Treatment of Reflux” (The Medical College of Wisconsin, Inc., priority 2022, published 2024)

Target: T1, porcine pepsin A (Sus scrofa, UniProt P00791)
T1 construct: purchased Worthington Biochemical Corporation
Experiment: competitive binding assay, fluorescence polarization with pepstatin-Alexa647
Details: 100 nM probe, 0.03 U/ul porcine pepsin A, 37.5% DMSO, 0.1 M HCl pH 1
Protocol: To examine whether HIV protease inhibitors bound and inhibited pepsin, we developed assays based on fluorescence polarization which measures size-dependent molecular rotation thereby permitting detection of degradation, association and dissociation events^80. A competitive binding assay was designed employing pepstatin, an inhibitor of sub-nanomolar affinity^81. Pepstatin-Alexa647 was synthesized by dissolving 1 mg pepstatin A (Sigma-Aldrich) in a 50:50 mixture of dimethylformamide (DMF) and dimethylsulfoxide (DMS) followed by the addition of N,N,N′,N′-Tetramethyl-O—(N-succinimidyl)uronium tetrafluoroborate (0.6 mg) and trimethylamine (10 μL) DMF. The mixture was stirred for 1 hour, after which 1 mg Alexa Fluor 647 Cadaverine, Disodium Salt (ThermoFisher Scientific) was added. After 2 hours, the solvents were evaporated under high vacuum (35° C.) and residue partially dissolved in 10% methanol and transferred onto a C18 cartridge (Waters Corporation, Milford, MA). Increasing percentages of methanol were used for the elution. Pepstatin-Alexa647 eluted at 45% methanol. An enzymatic inhibition assay was designed using casein substrate.^82 Bovine alpha casein (Sigma-Aldrich, St. Louis, MO) was labeled with Alexa Fluor 647 Carboxylic Acid, Succinimidyl Ester (ThermoFisher Scientific, Waltham, MA) as described.^82 Briefly, the two were combined at 2.5 ug/mg label to protein ratio in 0.1M sodium bicarbonate for 15 minutes and labeled casein was separated from unbound label in a Sephadex G-25 (Sigma-Aldrich) column comprised of 90×5 mm packed beads in a glass Pasteur pipette, eluted with dPBS pH7.4 (ThermoFisher Scientific). The fast-moving band (casein-bound fluorophore) was collected in ˜0.4 ml volume. […]
Assays were optimized using ranges of 0.3-1000 μM unlabeled pepstatin, 100-500 nM pepstatin-Alexa647 or casein-Alexa647 probe, 0.003-3 U/μl porcine pepsin (Worthington Biochemical Corporation, Lakewood, NJ), and 5-37.5% DMSO (HIV protease inhibitor diluent) in 0.1 M HCl, pH 1 with 0.01% v/v Tween-20 in 20 μl volumes in 384-well black optical plates (Nunc, Roskilde, DK) and read on a BioTek Cytation 5 (BioTek Instruments, Winooski, VT) with far red FP filter cube (excitation/emission 620/680 nm). […] Assays were performed twice with triplicate reactions read for five minutes and mean mP plotted against probe concentration (binding assay) or read at <2 minutes intervals over 30 minutes with mean mP of plotted over time (activity assay). Half maximal inhibitory concentration (IC50) of inhibitors were calculated from kinetic traces analyzed using an online tool (https://icekat.herokuapp.com/icekat)^83. mP was normalized to blank (absent inhibitor) to derive percent bound or activity.

T1 sequence (P00791 60-385): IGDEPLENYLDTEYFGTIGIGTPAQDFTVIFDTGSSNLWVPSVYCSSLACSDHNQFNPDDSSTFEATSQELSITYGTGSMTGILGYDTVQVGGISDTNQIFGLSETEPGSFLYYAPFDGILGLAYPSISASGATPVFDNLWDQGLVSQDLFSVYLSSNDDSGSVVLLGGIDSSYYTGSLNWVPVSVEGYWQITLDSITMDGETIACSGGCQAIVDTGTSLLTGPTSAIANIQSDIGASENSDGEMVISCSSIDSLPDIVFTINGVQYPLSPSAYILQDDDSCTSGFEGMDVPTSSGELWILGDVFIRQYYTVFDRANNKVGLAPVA

SMILES: CC(C)CN(C[C@@H](O)[C@H](Cc1ccccc1)NC(=O)O[C@H]1CO[C@H]2OCC[C@H]21)S(=O)(=O)c1ccc(N)cc1 [darunavir, [(3aS,4R,6aR)-2,3,3a,4,5,6a-hexahydrofuro[2,3-b]furan-4-yl]N-[(2S,3R)-4-[(4-aminophenyl)sulfonyl-(2-methylpropyl)amino]-3-hydroxy-1-phenylbutan-2-yl]carbamate]
- bound pepsin (competitive binding): low micromolar
